Key:
KM12 cells = test: Caspase activity assay; type: cell-based; conditions: 72 hours, caspase3 glo / PARP immunoblot
Description: KM12 cells were maintained in DMEM medium supplemented with 10% fetal bovine serum and antibiotics. 500,000 cells were seeded in 12-well plate and various concentration of compounds were introduced for 72 hours For staurosporine treatment, 500 nM of STS were added at time of 60 hours and incubation of 12 hours as a positive control. All the cells were collected and washed with 1×PBS twice and then lysed in a lysis buffer (20 mM HEPES, 150 mM NaCl, 10 mM KCl, 5 mM EDTA, 1% NP40) supplemented with Halt protease and phosphatase inhibitors (Thermo Scientific). For caspase assays, around 20 μL (20 μg) of cell lysate were incubated with 20 μL, of caspase3 glo reagent (Promega), measuring enzyme activity by the release of luminescence after 20 min incubation at 37° C. For western blotting, cell lysates were boiled and analyzed by SDS-PAGE/immunoblotting using PARP, or actin antibodies.

[1] = tested on: Ba/F3-EML4-ALK wild type cell line; test: EML4-ALK Ba/F3 cell proliferation assay; type: cell-based; conditions: 48 hours incubation, read-out: EML4-ALK Ba/F3 cell proli. IC50
Description: The EML4-ALK wild-type gene (variant 1) was synthesized at GenScript and cloned into pCDH-CMV-MCS-EF1-Puro plasmid (System Biosciences, Inc). Ba/F3-EML4-ALK wild type cell line was generated by infecting Ba/F3 cells with lentivirus containing EML4-ALK wide-type. Stable cell lines were selected by puromycin treatment, followed by IL-3 withdrawal. 5000 cells were seeded in 384 well white plate overnight before compound treatment. Cell proliferation was measured using CellTiter-Glo luciferase-based ATP detection assay (Promega) following the manufactures's protocol after 48 hours of various concentration of compound incubation. IC50 determinations were performed using GraphPad Prism software (GraphPad, Inc., San Diego, Calif.).

Compound	apoptosis of KM 12 cells (KM12 cells)	IC50 [1]
CN1Cc2cc(F)ccc2OCCNC(=O)c2cnn3ccc1nc23 [Example 20, 11-fluoro-14-methyl-6,7,13,14-tetrahydro-1,15-ethenopyrazolo[4,3-f][1,4,8,10]benzoxatriazacyclo-tridecin-4(5H)-one]	induced apoptosis	
C[C@H]1Nc2ccn3ncc(c3n2)C(=O)NCCOc2ccc(F)cc21 [Example 51-1, (13R)-11-fluoro-13-methyl-6,7,13,14-tetrahydro-1,15-ethenopyrazolo[4,3-f][1,4,8,10]benzoxatriazacyclotridecin-4(5H)-one]		248 nM
C[C@@H]1CNC(=O)c2cnn3ccc(nc23)N[C@H](C)c2cc(F)ccc2O1 [Example 92, (7R,13R)-11-fluoro-7,13-dimethyl-6,7,13,14-tetrahydro-1,15-ethenopyrazolo[4,3-f][1,4,8,10]benzoxatriazacyclotridecin-4(5H)-one]		78.6 nM
C[C@H]1CNC(=O)c2cnn3ccc(nc23)N[C@H](C)c2cc(F)ccc2O1 [Example 93, (7S,13R)-11-fluoro-7,13-dimethyl-6,7,13,14-tetrahydro-1,15-ethenopyrazolo[4,3-f][1,4,8,10]benzoxatriazacyclotridecin-4(5H)-one]		21.1 nM

— patent US10618912B2, “Diaryl macrocycles as modulators of protein kinases” (Turning Point Therapeutics, Inc., priority 2014, dated 2020)
